This series in a line: gradient 5% acetonitrile 3 min, to 50% in 2 min, to 85% in 15 min, held 3 min, 100 µL/min. Particulars: column: Zorbax Extend-C18 2.1 x 50 mm; eluents: water / acetonitrile, 0.1% formic acid. The method, boiled down: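 A Zorbax Extend-C18 column (2.1 × 50 mm, 1.8 μm) run at 100 μL/min with water and acetonitrile, both containing 0.1% formic acid, separated mixtures of ~100 pure standards. The HPLC was coupled to a quadrupole time-of-flight mass spectrometer operated in positive and negative ionization mode, with dead and dwell volumes of 40 μL and 900 μL. Each retention time was taken from a computationally picked adduct peak that was then manually inspected.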
Regarding `CNC(=O)C1CCCN(c2nc3ncn(CC(=O)Nc4c(C)cc(C)cc4C)c(=O)c3s2)C1` (stereo not given), the RP-LC retention time worked out at 661 s.
With `O=C(C1CCC1)N1CCCC(OCc2nc(-c3ccccc3)no2)C1` (stereo not given), the RP-LC retention time came to 791 s.
The same measure for `CC(C)n1nnc2cc(C(=O)N(C)CC(=O)Nc3ccc(Br)cc3F)ccc21`: 803 s; for `N#Cc1cccnc1N1CCN(c2ccccn2)CC1`: 590 s; for `CNC(=O)[C@@H]1CN(C(=O)c2ccc(Cl)s2)C[C@H]1c1nc(COC)no1`: 698 s.
`Cc1ccc(-c2nc3nc(C)cc(N4CCN(c5ccccn5)CC4)n3n2)cc1` registered an RP-LC retention time of 629 s.
The same measure for `O=C(NC1CC1)c1cccn1Cc1noc(-c2ccccc2)n1`: 840 s.
For `Cc1nc2cc(N3CC(C(=O)N4CCN(c5ccccc5F)CC4)CC3=O)ccc2o1` (stereo not given), the RP-LC retention time was found to be 788 s.
The same measure for `O=C(Nc1cccc(F)c1)N1CC2CCCN2c2ccccc21` (stereo not given): 1110 s.
The same measure for `Cc1ccc(-c2noc(CN3C(=O)COc4cc(Cl)ccc43)n2)cc1`: 1140 s.
To `NC(=O)c1c(N)c(C(=O)c2cccc([N+](=O)[O-])c2)n2ccccc12` belongs 649 s; to `CC(C)NC(=O)C1Cc2cc(C(F)(F)F)ccc2N2CCN(c3ccccc3Cl)CC12` (stereo not given), 1200 s; to `O=C(NCCCN1CCCCCC1)c1nnc(-c2ccc(S(=O)(=O)N3CCCC3)cc2)o1`, 648 s.
Take `CCCN(CC1CCOC1)C(=O)Nc1ccccc1OCC` (stereo not given): the RP-LC retention time worked out at 903 s.
The same measure for `CC(=O)NCCn1c(SCC(=O)OCc2ccccc2)nc2ccccc2c1=O`: 767 s; for `COCCN1C(=O)C(CC(=O)NCCCn2cccn2)=C2CCCCC21` (stereo not given): 634 s; for `CCNC(=O)c1csc(N2CCCC(C)C2)n1` (stereo not given): 928 s.
The same measure for `O=C(NC1CCN(Cc2ccccc2)CC1)c1cn2nc(Cl)ccc2n1`: 621 s; for `CCc1nccn1Cc1noc(-c2ccccc2F)n1`: 613 s; for `Cc1ccc(NC(=O)N2CCCN(c3ccc(=O)n(-c4ccccc4)n3)CC2)c(C)c1`: 763 s.
To `CC(C)CNC(=O)N1CCn2nnc(CCC(=O)N3CCOCC3)c2C1` belongs 604 s.
`Cc1cc(C(=O)NCC(C)C)n[nH]1`: the RP-LC retention time worked out at 629 s.
The same measure for `O=C(C1CC1)N1CCC(c2noc(-c3cnccn3)n2)C1` (stereo not given): 621 s; for `O=C(Cn1ncc2c(c1=O)N(CC1CC1)C(=O)CS2)Nc1cccc(C(F)(F)F)c1`: 869 s.
The same measure for `Cc1noc(-c2cc(=O)n(CC(=O)NC3CCCCC3)c3ccccc23)n1`: 819 s.
In the case of `CC(=O)N1CCc2cc(N3CC(C(=O)NCc4ccc(F)cc4Cl)CC3=O)ccc21` (stereo not given), the RP-LC retention time worked out at 713 s.
To `CCOC(=O)c1ccc2nc(C(F)(F)F)nc(NCCc3ccc(OC)c(OC)c3)c2c1` belongs 1140 s; to `O=c1oc2cc(O)c(O)cc2c2c1CCCC2`, 684 s.
To `O=C(Nc1ccccc1F)N1CCC(CCNC(=O)C2(c3ccccc3)CC2)CC1` belongs 889 s; to `CCCCOc1ccc(C(=O)Nc2ccc(-c3cn4ccc(C)nc4n3)cc2)cc1`, 781 s.
To `CC(C)c1ccc(NC(=O)N2CCN(c3ccc4nncn4n3)CC2)cc1` belongs 672 s.
For the compound `Cc1ccc(CNC(=O)C2(C)CN(S(=O)(=O)c3ccccc3)CC(=O)N2c2ccc(F)cc2)cc1` (stereo not given), the RP-LC retention time turned out to be 942 s.
The same measure for `Cc1nnc(C2CC3(CCN(CCO)CC3)CN2Cc2ccccc2)o1` (stereo not given): 565 s.
The same measure for `CC(C)n1cnc(S(=O)(=O)N2CCC(C(=O)Nc3cccc(Br)c3)CC2)c1`: 843 s.
To `Cc1cccc(NC(=O)Nc2cnc3c(c2)CCC3)c1` belongs 578 s; to `Cc1ccc(C)c(N2CCN(c3ccc4cc(S(=O)(=O)N5CCCCC5C)ccc4n3)CC2)c1` (stereo not given), 1340 s.
`Cc1cc(C)c(S(=O)(=O)N2CCN(Cc3cccc(F)c3)C3(CCOCC3)C2)cc1C` gave an RP-LC retention time of 974 s.
To `Cc1ccc(CNC(=O)NCc2c(C)nn(-c3ccccc3)c2-n2cccc2)cc1` belongs 972 s; to `CC(C)NC(=O)N1CCCC1c1nc(-c2cccc(C(F)(F)F)c2)no1` (stereo not given), 902 s.
To `Cc1cc(C)n(-c2ccc(C(=O)NCc3ccc(F)cc3F)cn2)n1` belongs 929 s; to `O=C(c1nnc(-c2ccc(S(=O)(=O)N3CCCCC3)cc2)o1)N1CCC2(CC1)OCCO2`, 884 s.
To `COc1ccc(CNC(=O)C2=C3CCCN3c3ccc(F)cc3S2(=O)=O)c(OC)c1` belongs 870 s; to `COc1ccc(-c2nnc(-c3cc(S(=O)(=O)N4CCCCC4)ccc3Cl)o2)cc1`, 1150 s; to `CCn1nccc1-c1cccc(-c2noc(C3CC(=O)N(c4ccc(C)c(C)c4)C3)n2)c1` (stereo not given), 1080 s.
Compound `CC1CCCCN1CCCNC(=O)CN1C(=O)c2ccccc2Sc2ncccc21` (stereo not given) registered an RP-LC retention time of 661 s.
To `Cc1cccc(NC(=O)Cn2nnc(-c3ccccc3)n2)c1C` belongs 588 s; to `O=C(Nc1ccc2c(c1)OCCO2)C1CC(=O)N(CCc2c[nH]c3ccc(Cl)cc23)C1` (stereo not given), 827 s; to `Cc1[nH]c2ccccc2c1C(=O)C(=O)N(C)Cc1ccccc1`, 805 s.
To `CC(C)c1nc2c(NC(=O)c3ccccc3)cccn2n1` belongs 860 s.
As to `CC(C)OCCCN1C(=O)CN(C2CCCCC2)C(=O)C1c1cccs1` (stereo not given), the RP-LC retention time amounted to 991 s.
To `Cc1ccc(CNC(=O)C2(c3ccc(NC(=O)C(C)C)cc3)CCC2)cc1C` belongs 936 s; to `COc1ccc2[nH]cc(CCNC(=O)c3cc(C)nc4c3c(=O)n(C)c(=O)n4C)c2c1`, 699 s; to `COc1cccc(CNC(=O)CN2CCc3[nH]c4c(OC)ccc(Cl)c4c(=O)c3C2)c1`, 618 s.
The same measure for `O=C(Cn1nc2nc(Nc3ccc(F)cc3)ccn2c1=O)NC1CCCC1`: 701 s.
The same measure for `O=c1c2scc(-c3ccc(Br)cc3)c2ncn1Cc1ccc(F)cc1`: 1180 s; for `CCCCC(=O)N1CCN(c2nc3ccccc3cc2-c2noc(C)n2)CC1`: 913 s; for `CCCN1C(=O)CN(S(C)(=O)=O)CC1(C)C(=O)NCc1ccc(C)cc1` (stereo not given): 758 s.
Regarding `Cc1nn2cnnc2c(C)c1CCC(=O)NCCN(C)Cc1ccccc1`, the RP-LC retention time is 571 s.
To `CCCCN(C)S(=O)(=O)c1cc(-c2nnc(C(C)C)o2)co1` belongs 984 s.
To `Cc1ccc(CNC(=O)N2CCC3(CC2)NC(=O)c2ccc(Cl)cc2N3C)cc1` belongs 843 s.

The values above are taken from the METLIN SMRT retention time set (Domingo-Almenara et al. 2019).
